Data set [1] has as its system enzymes. As to conditions: e.g. against heating, freezing and drying; cited from earlier work.
Data set [2] relates to gram positive and gram negative bacteria. As to the kind of experiment: Antibiotic activity test on bacterial cultures. It counts as cell-based. Conditions: several cultures of gram positive and gram negative bacteria. An excerpt: (§1) THP(A) and THP(B) are not toxic to mammals.
The subject of data set [3] is RNA polymerase II from HeLa cells. Description: In vitro transcription of dCMP-tailed template, RNA polymerase II. It counts as biochemical, mammalian. Conditions: for effect of the THP by itself on the transcription reactions: lanes 2, 6, 10. How it is done:
FIG. 5 is a radiogram showing the inhibition of RNA polymerase II transcription by Act D and its resumption due to the addition of THP(A) and THP(B). Relative intensities of the bands were determined as in Table 6. The concentration of the DNA was 71.4 μM.
(§2) The inhibition of RNA polymerase transcription caused by Act D binding to DNA was studied using the system described in Kadesch and Chamberlin, 1982, in which purified RNA polymerases from mammalian cells, such as RNA polymerases I, II and II from HeLa cells, are able to transcribe defined dCMP-tailed DNA templates efficiently and specifically. The dCMP-tailed DNA system allows quantitative studies of transcription reactions by the polymerase protein itself in the absence of other protein factors, and is thus an appropriate system to analyze the direct effect of DNA-binding drugs on the transcription process, and the protective effect of THP(A) and THP(B) on transcription in the presence of Act D.
(§3) DNA-dependent RNA polymerases I, II and III from HeLa cells (pol I, pol II and pol III, respectively) were purified by a method which is a modification of the procedure described by Hodo and Blatti, 1977.
(§4) The templates DNA were linearized by restriction enzyme Pst I generating a 3' protruding end, and tailed at both ends with dCTP by using terminal transferase (Boehringer Mannheim). Following ethanol precipitation, the dCMP-tailed DNAs were digested with a second restriction enzyme, and the selected tailed fragment was purified from agarose gel as described by Kadesch and Chamberlin, 1982.
Transcription reaction mixtures were incubated in 15 μl of transcription buffer containing 70 mM Tris-HCl (pH 7.9), 0.1M NH4 Cl, 6 mM MgCl2, 5 mM spermidine, 10% glycerol, 0.15 mM dithriothreitol, 0.6 μg of dCMP-tailed template, and 0.5 μl of HeLa RNA polymerase (3u) at 30° C. for 10 min. Pulse buffer (3.5 μl) containing 4.3 mM of ATP, GTP and CTP, and 170 μM UTP, 20 μCi of [α-^32 P]UTP was added to the transcription reaction mixture for 20 seconds incubation. Transcription elongation then took place by adding 1.5 μl of chase buffer containing 7 mM UTP in the presence or absence of 0.06 μg Act D. Transcription elongation was carried out for 10 min and was then stopped by addition of proteinase K buffer (0.6% SDS; 25 mM Tris pH 7.9; 25 mM EDTA final concentration) 200 μg/ml proteinase K, and 30 μg of tRNA, and incubated for 25 min at 65° C. The sample was ethanol precipitated, pellet was resuspended in loading buffer (90% formamide; 0.5×Tris borate buffer) and subjected to 6% polyacrylamide--urea gel electrophoresis. The autoradiogram of the gel was analyzed by molecular dynamics computing densitometer to determine the relative intensities of the bands. (Nucleoside triphosphates and tRNA were purchased from Sigma, proteinase K from Boehringer Mannheim, and [α-^32 P]CTP (400 Ci/mmol) from Amersham International, United Kingdom).
The sensitivity of the three RNA polymerases from HeLa cells to various concentrations of Act D was determined, using the purified polymerases and a dCMP-tailed template of 225 bp for pol I and of 420 bp for pol II and pol III. These templates are expected to give runoff transcripts of 225 and 420 nucleotides, respectively, since RNA polymerase initiates transcription at discrete sites at the single-stranded tail double stranded duplex junction. In all experiments a pulse-chase protocol was used.
It was figured that the concentration of the THP(A)+THP(B) required to prevent binding of Act D to DNA would be higher than that of Act D, since they are expected to protect the DNA in general and not necessarily at d(GpC) base pair (bp), whereas the concentration of Act D is related to the d(GpC) content of the DNA. […] Yet when THP(A) and THP(B) were added together in a ratio of 1:1, their effect was dramatic. At a concentration of 200 μM there was a recovery of 75% of transcription in the presence of 2.5 μM Act D, which by itself would have inhibited 97% of the reaction. […]

The nature of data set [4]: Toxicity on administration to mice. As to conditions: doses of 1, 10 and 100 mg/100 g body weight. It counts as in vivo.
Description: as §1

For data set [5], the system named is E. coli. Description: E. coli growth under high salt or in the presence of adriamycin. Format: cell-based. As to conditions: conditions which otherwise prevent E. coli growth.
For data set [6], the system named is RNA polymerase I from HeLa cells. Description: In vitro transcription of dCMP-tailed template, RNA polymerase I. Format: biochemical, mammalian.
Description: as §2, with “D. […]” for “D.”
(§5) Transcription reaction mixtures were incubated in 15 μl of transcription buffer containing 70 mM Tris-HCl (pH 7.9), 0.1M NH4 Cl, 6 mM MgCl2, 5 mM spermidine, 10% glycerol, 0.15 mM dithriothreitol, 0.6 μg of dCMP-tailed template, and 0.5 μl of HeLa RNA polymerase (3u) at 30° C. for 10 min. […] The autoradiogram of the gel was analyzed by molecular dynamics computing densitometer to determine the relative intensities of the bands. […]
(§6) The sensitivity of the three RNA polymerases from HeLa cells to various concentrations of Act D was determined, using the purified polymerases and a dCMP-tailed template of 225 bp for pol I and of 420 bp for pol II and pol III. […]

Data set [7] relates to RNA polymerases I, II and III from HeLa cells. As to the kind of experiment: In vitro transcription of dCMP-tailed template, summary for the three polymerases. It counts as biochemical, mammalian. Conditions: pol I.
Description: as §2, §5, §6

Data set [8] concerns RNA polymerase III from HeLa cells. Description: In vitro transcription of dCMP-tailed template, RNA polymerase III. Format: biochemical, mammalian.
Description: as §2, §3, §4, §5, §6

Data set [9] relates to d(ATGCAT). As to the kind of experiment: 1H NMR titration: equilibrium binding of Act D to d(ATGCAT) in presence and absence of THPs. Conditions: no THPs. From the text:
Expanded views of (a) and (a') are shown in spectra (A) and (A'), respectively of FIG. 4(b). The spectra were obtained at pH 7 (as in FIG. 3).
(c) Binding of Act D to d(ATGCAT). The binding of Act D to free oligonucleotide and to the oligonucleotide-THPs complex have been investigated by the ^1 H NMR titration technique.
The equilibrium binding properties of Act D-d(ATGCAT) in the presence and absence of the THPs (Table 4) were derived from the proton peak area ratios of the free hexamer to the bound Act D-hexamer.

Data set [10] has as its system HeLa whole cell extract (WCE). As to the kind of experiment: In vitro transcription using HeLa whole cell extract (WCE). It counts as biochemical. How it is done:
The DNA was preincubated with THPs (A+B) at increasing concentrations for 20 min at 30° C., actinomycin D was then added at a concentration of 0.4 μg/ml. Following 20 min of incubation, WCE (10 μl) was added for incubation of 20 min at 30° C. Radioactive nucleotide mix was then added for a pulse of 5 min followed by addition of chase mix containing 10 mM CTP. Transcription proceeded for 30 min at 30° C. and was then stopped. […] Lane M--molecular weight markers. Lane C--control reaction without […] or THPs. Lanes of reaction with 0.4 μg/ml actinomycin D are marked (+), lanes of increasing concentrations of THPs (0, 5, 10, 20, 50, 100, 200, 500 μg/ml) are also marked above the lanes.
A 20-μl reaction contained 10 μl WCE, 1 μg DNA, 4 mM creatine phosphate, 500 μM ATP, GTP, UTP, 50 μM CTP, 20 μCi of [α-^32 P]CTP, and transcription was performed at 30° C. All reactions were preincubated 20 min before the addition of the nucleotide mixture; 3 min after the addition of radioactive nucleotides, (pulse), chase mix containing 10 mM unlabelled CTP was added and transcription proceeded for additional 20 min.

In data set [11] the test system is HL60 cells. As to the kind of experiment: [3H] thymidine incorporation (DNA synthesis) in HL60 cells. It counts as cell-based. As to conditions: Homo sapiens, HL-60, read-out: inhibition of [3H] thymidine incorporation. How it is done: FIG. 6 illustrates reversal of adriamycin inhibition of DNA synthesis due to THPs. It depicts a schematic presentation of percent [^3 H] thymidine incorporated versus adriamycin concentration according to the table below the scheme. Empty squares--[^3 H] thymidine incorporation versus adriamycin concentration. Filled squares--[^3 H] thymidine incorporation versus adriamycin concentration in the presence of THPs (100 μg/ml).
HL60 cells were grown in RPMI medium (Gibco) containing 10% fetal calf serum (Biological Laboratories--Bet Haemek) in microwell plates (Nunc). Cells were suspended in medium at a concentration of 2×10^5 cells per ml and dispersed into the wells of the plates in 100 μl aliquots. Following 20 hrs of incubation at 37° C., the cells were treated with THPs (100 μg/ml) and adriamycin at increasing concentrations as indicated in FIG. 6. After 24 hrs [^3 H] thymidine was added (1 μCi/well, […]) for a duration of 3 hrs. Thymidine incorporation was stopped by addition of 25 μl trichloroacetic acid (TCA) at 20%, and the plates were placed at 4° C. overnight. TCA precipitates were washed with 10% TCA (100 μl), solubilized in 100 μl 1N NaOH and transferred to vials for counting in the presence of 3 ml scintillation solution containing toluene:Lumax (Lumac, The Netherlands) (3:2) mix. Assays were performed in triplicates.

Setting [12] is: THP 10 μg/ml (66 μM, 60 μM printed for THP(B)), Act D 3 μg/ml [2.5 μM].
Where [13] appears, read: THP 30 μg/ml (200 μM), Act D 3 μg/ml [2.5 μM].
The mark [14] stands for this setting: THP 60 μg/ml (400 μM), Act D 3 μg/ml [2.5 μM].
[15] abbreviates: THP 60 μg/ml (400 μM), without Act D.

This is an account of results in patent US5789414A, “Pharmaceutical compositions comprising tetrahydropyrimidine derivates” (Yeda Research and Development Co. Ltd., priority 1992, dated 1998).

Numbered stars: 1 amine (or outer) side, 2 acyl side, 3 side chain; on linkers, the order of the positions; unused ones are H or OH. Bridge positions count the residues as written; N and C are the ends. Square brackets hold non-standard residues; d marks the D form. Peptide text beside a SMILES is read from it. I, II: the chains in the order shown. Actinocin(9to1) = Cc1c2oc3c(C)ccc(C(=O)[*:1])c3nc-2c(C(=O)[*:2])c(N)c1=O; NMeV = CN[C@H](C(=O)O)C(C)C; Sar = CNCC(=O)O

For `CC1=NCC[C@@H](C(=O)O)N1` [THP(B), 2-methyl-4-carboxy-3,4,5,6-tetrahydropyrimidine], the “protective effect on enzymes” value in [1] was “protective effect on enzymes”. Further, the antibiotic activity entry in data set [2] is reported as “do not have antibiotic activity”. For the same compound, the “% transcription” value came to 1.0% in data set [3] (setting [12]), 2.7% in data set [3] (setting [13]), 5.1% in [3] (setting [14]) and 100% in [3] (setting [15]). Besides, the “effect of the THP by itself on the transcription reactions” value in data set [3] (without Act D) is listed as “did not inhibit the transcription reactions”.
On to `CC1=NCC(O)C(C(=O)O)N1` (stereo not drawn) [THP(A), 2-methyl-4-carboxy-5-hydroxy-3,4,5,6-tetrahydropyrimidine], for which the toxic effects entry in data set [4] was “no toxic effects”. In addition, the “growth of E. coli in the presence of adriamycin” value in data set [5] was “enable efficient growth of E. coli”. Moreover, the “growth of E. coli under high salt concentrations” value in [5] is reported as “enable efficient growth of E. coli”. In addition, the antibiotic activity entry in data set [2] is reported as “do not have antibiotic activity”. The “% transcription” value in [3] (setting [12]) turned out to be 0.2%; in data set [3] (setting [13]), 0.5%; in data set [3] (setting [14]), 1.5%; in [3] (setting [15]), 100%. Also, in [3] (without Act D), the “effect of the THP by itself on the transcription reactions” value is “did not inhibit the transcription reactions”.
In the case of `Cc1c2oc3c(C)ccc(C(=O)N[C@@H]4C(=O)N[C@H](C(C)C)C(=O)N5CCC[C@H]5C(=O)N(C)CC(=O)N(C)[C@@H](C(C)C)C(=O)O[C@@H]4C)c3nc-2c(C(=O)N[C@@H]2C(=O)N[C@H](C(C)C)C(=O)N3CCC[C@H]3C(=O)N(C)CC(=O)N(C)[C@@H](C(C)C)C(=O)O[C@@H]2C)c(N)c1=O` [Act D, Actinomycin D] (I: T[dV]P[Sar][NMeV] / II: T[dV]P[Sar][NMeV]; ester I:1-I:C, II:1-II:C; linker I:N-II:N via Actinocin(9to1)), the “Percentage of residual transcription” value worked out at 16% in data set [6] (Actinomycin-D 1 μg/ml); 3% in [6] (Actinomycin-D 5 μg/ml); 13% in [8] (Actinomycin-D 1 μg/ml); 3% in data set [8] (Actinomycin-D 3 μg/ml); 0.1% in data set [8] (Actinomycin-D 5 μg/ml); 22% in data set [3] (Actinomycin-D 1 μg/ml). Moreover, the “Percentage of residual transcription” value in data set [3] (Actinomycin-D 4 μg/ml) and in [3] (Actinomycin-D 5 μg/ml) was 3% throughout. The residual transcription in data set [7] (1 μg/ml Act D added with the chase) was 10-20%; in data set [7] (Act D 3-5 μg/ml) it was 0.1-3%; in data set [10] (actinomycin D alone, 0.4 μg/ml), 20%. Also, the “d(ATGCAT) (free/bound)” value in data set [9] (molar ratio Act D/d(ATGCAT) 0.16) is given as 4.9; in data set [9] (molar ratio Act D/d(ATGCAT) 0.32) it was 1.7; in [9] (molar ratio Act D/d(ATGCAT) 0.48), 0.8; in data set [9] (molar ratio Act D/d(ATGCAT) 0.64) it was 0.4. Moreover, the “inhibition of the transcription reaction” value in [10] (Act D alone at 0.4 μg/ml) is given as 80%. The inhibition of transcription in [3] (Act D 2.5 μM (3 μg/ml) by itself) is 97%. Also, the “% transcription” value in [3] (Act D 3 μg/ml [2.5 μM], THP 0) was 0.2%.
Turning to `COc1cccc2c1C(=O)c1c(O)c3c(c(O)c1C2=O)C[C@@](O)(C(=O)CO)C[C@@H]3O[C@H]1C[C@H](N)[C@H](O)[C@H](C)O1` [adriamycin], in data set [11], the inhibition at 0.01 µg/mL came out at 30% and the inhibition at 0.02 µg/mL is 40%.
